Test results reported in patent US20230029496A1, “AMINO ACID ALTERNATIVE CURING SYSTEM” (THE TEXAS A&M UNIVERSITY SYSTEM, priority 2019, published 2023).
Values joined by “and” are separate entries in the source; they are usually repeats but may differ in a detail not shown here. Equal entries are not always repeated. Where two headings read alike, the source gives them in different places. Marks after values point to notes of the source that are not given here.

Key:
[1] = system: nitric oxide synthase system; conditions: pork; for Residual Nitrite, LSMean main effect of Temperature: sodium nitrite
Protocol: (§1) Fresh ground meat (beef, pork or poultry) was separated in ˜0.5 Kg batches and mixed with 2% salt and 10% added water. […] Each individual batch was mixed (1 min) in a food processor, removed for temperature and pH analyses and then placed into a jerky extruder tube. Approximately 25 g of sample were extruded into 50 mL centrifuge, then capped and labeled and placed into a controlled water batch and heated to a designated internal endpoint temperature (132, 158, or 165° F.).
(§2) Samples also contained 547 ppm sodium erythorbate, a cure accelerator (Phase I) and without sodium erythorbate (Phase II). Samples were placed into test tubes and heated in a controlled water bath to 132, 158 and 165° F. Samples were held in a 40° F. cooler for seven days then tested for residual nitrite. Residual nitrite was tested after deproteinization for amino acid analysis by HPLC. Determination of nitrite (UV/VIS Spectrophotometric Method) was used to detect any residual nitrite for best results in detecting minute amounts of nitrite. Residual nitrite levels were read in a 96 well plate reader at 540 nm.
(§3) Both phases of the experiment were designed as a factorial (concentration level and endpoint temperature) randomized complete block design with three replications. […] Least squares means were generated and Tukey's HSD used to determine significance at P≤0.05.

NOS system [2] = assay: NO-heme, total heme, nitrosylation in test beef frankfurters (Example 12); conditions: 156 ppm sodium nitrite with sodium erythorbate 547 ppm
Protocol: (§4) The remaining nonmeat ingredients were added (except the antimicrobial) and chopped at 2000 rpm for one minute. Protecta (sodium acetate antimicrobial) was added and the emulsion chopped at 4000 rpm for one minute. The emulsion was evacuated and placed into a vacuum assisted stuffer where each test emulsion was stuffed and twist linked into 22 mm cellulose casings weighing 40 g each. The frankfurter links were hung on smokehouse trucks, placed into a commercial smokehouse and thermally processed to 160° F. (Table 18).
(§5) After thermal processing and chilling (40° F.), the casings were peeled from the frankfurters and were vacuum packaged and stored under refrigerated conditions for residual nitrite and nitrosylation. […] This was done to determine if the L-arginine could the NOS system to generate sufficient NO for cure color development and residual nitrite for antioxidant and antimicrobial effect.

[3] = system: nitric oxide synthase system; conditions: beef; for Residual Nitrite, LSMean main effect of Temperature: sodium nitrite
Protocol: as §1, §2, §3

[4] = system: nitric oxide synthase system; conditions: poultry; for Residual Nitrite, LSMean main effect of Temperature: sodium nitrite
Protocol: as §1, §2, §3

[5] = system: nitric oxide synthase system; conditions: 156 ppm sodium nitrite
Protocol: (§6) After thermal processing and chilling according to USDA-FSIS Appendix A—Thermal processing (71° C.) and B—Cooling procedures (2° C.) guidelines, the frankfurters will be vacuum packaged and stored under refrigeration (2° C.) until analyzed at 0, 14, 28 and 56 days post manufacture.
The samples were analyzed for residual nitrite after deproteinization by sample preparation for amino acid analysis by HPLC.
(§7) Samples were vacuum packaged and refrigerated and evaluated on Day 1, 7, 14, 28 and 56 post manufacture. Differences between treatment and control samples will be determined using Tukey's Least Significant Difference procedure at P≤0.05 level. The experiment was replicated three times.

NOS system [6] = assay: Residual nitrite in test beef frankfurters (Example 12); conditions: 156 ppm sodium nitrite with sodium erythorbate 547 ppm
Protocol: as §4, §5

[7] = 156 ppm sodium nitrite
Protocol: as §6
Cooked sample water activity was measured (in triplicate) using an Aqualab Model Series 3 water activity meter.
as §7

[8] = Phase I, with 547 ppm sodium erythorbate, 120 ppm sodium nitrite
[9] = Phase I, with 547 ppm sodium erythorbate, 120 ppm sodium nitrite, 132° F.
[10] = Phase I, with 547 ppm sodium erythorbate, 120 ppm sodium nitrite, 158° F.
[11] = Phase I, with 547 ppm sodium erythorbate, 120 ppm sodium nitrite, 165° F.
[12] = Phase I, with 547 ppm sodium erythorbate, 156 ppm sodium nitrite
[13] = Phase I, with 547 ppm sodium erythorbate, 156 ppm sodium nitrite, 132° F.
[14] = Phase I, with 547 ppm sodium erythorbate, 156 ppm sodium nitrite, 158° F.
[15] = Phase I, with 547 ppm sodium erythorbate, 156 ppm sodium nitrite, 165° F.
[16] = Phase I, with 547 ppm sodium erythorbate, 200 ppm sodium nitrite
[17] = Phase I, with 547 ppm sodium erythorbate, 200 ppm sodium nitrite, 132° F.
[18] = Phase I, with 547 ppm sodium erythorbate, 200 ppm sodium nitrite, 158° F.
[19] = Phase I, with 547 ppm sodium erythorbate, 200 ppm sodium nitrite, 165° F.
[20] = Phase I, with 547 ppm sodium erythorbate, 132° F.
[21] = Phase I, with 547 ppm sodium erythorbate, 158° F.
[22] = Phase I, with 547 ppm sodium erythorbate, 165° F.
[23] = Phase II, without 547 ppm sodium erythorbate, 120 ppm sodium nitrite
[24] = Phase II, without 547 ppm sodium erythorbate, 120 ppm sodium nitrite, 132° F.
[25] = Phase II, without 547 ppm sodium erythorbate, 120 ppm sodium nitrite, 158° F.
[26] = Phase II, without 547 ppm sodium erythorbate, 120 ppm sodium nitrite, 165° F.
[27] = Phase II, without 547 ppm sodium erythorbate, 156 ppm sodium nitrite
[28] = Phase II, without 547 ppm sodium erythorbate, 156 ppm sodium nitrite, 132° F.
[29] = Phase II, without 547 ppm sodium erythorbate, 156 ppm sodium nitrite, 158° F.
[30] = Phase II, without 547 ppm sodium erythorbate, 156 ppm sodium nitrite, 165° F.
[31] = Phase II, without 547 ppm sodium erythorbate, 200 ppm sodium nitrite
[32] = Phase II, without 547 ppm sodium erythorbate, 200 ppm sodium nitrite, 132° F.
[33] = Phase II, without 547 ppm sodium erythorbate, 200 ppm sodium nitrite, 158° F.
[34] = Phase II, without 547 ppm sodium erythorbate, 200 ppm sodium nitrite, 165° F.
[35] = Phase II, without 547 ppm sodium erythorbate, 132° F.
[36] = Phase II, without 547 ppm sodium erythorbate, 158° F.
[37] = Phase II, without 547 ppm sodium erythorbate, 165° F.

## O=NO [Sodium Nitrite, Sodium nitrite, reference compound]
[1]; [8]
  Residual Nitrite, LSMean main effect of Concentration: 42.30^b ppm and 42.30 ppm
[1]; [9]
  Residual Nitrite, LSMean Conc × Temp: 58.68 ppm
[1]; [10]
  Residual Nitrite, LSMean Conc × Temp: 41.15 ppm
[1]; [11]
  Residual Nitrite, LSMean Conc × Temp: 27.07 ppm
[1]; [12]
  Residual Nitrite, LSMean main effect of Concentration: 62.37^a ppm and 62.37 ppm
[1]; [13]
  Residual Nitrite, LSMean Conc × Temp: 66.93 ppm
[1]; [14]
  Residual Nitrite, LSMean Conc × Temp: 46.37 ppm
[1]; [15]
  Residual Nitrite, LSMean Conc × Temp: 73.82 ppm
[1]; [16]
  Residual Nitrite, LSMean main effect of Concentration: 68.22^a ppm and 68.22 ppm
[1]; [17]
  Residual Nitrite, LSMean Conc × Temp: 63.47 ppm
[1]; [18]
  Residual Nitrite, LSMean Conc × Temp: 57.10 ppm
[1]; [19]
  Residual Nitrite, LSMean Conc × Temp: 84.08 ppm
[1]; [20]
  Residual Nitrite, LSMean main effect of Temperature: 63.03 ppm
[1]; [21]
  Residual Nitrite, LSMean main effect of Temperature: 48.21 ppm
[1]; [22]
  Residual Nitrite, LSMean main effect of Temperature: 61.66 ppm
[1]; [23]
  Residual Nitrite, LSMean main effect of Concentration: 214.53^a ppm and 214.53 ppm
[1]; [24]
  Residual Nitrite, LSMean Conc × Temp: 173.70^ab ppm
[1]; [25]
  Residual Nitrite, LSMean Conc × Temp: 178.90^ab ppm
[1]; [26]
  Residual Nitrite, LSMean Conc × Temp: 164.54^b ppm
[1]; [27]
  Residual Nitrite, LSMean main effect of Concentration: 183.17^b ppm and 183.17 ppm
[1]; [28]
  Residual Nitrite, LSMean Conc × Temp: 208.65^ab ppm
[1]; [29]
  Residual Nitrite, LSMean Conc × Temp: 166.20^b ppm
[1]; [30]
  Residual Nitrite, LSMean Conc × Temp: 174.67^ab ppm
[1]; [31]
  Residual Nitrite, LSMean main effect of Concentration: 172.38^b ppm and 172.38 ppm
[1]; [32]
  Residual Nitrite, LSMean Conc × Temp: 196.48^ab ppm
[1]; [33]
  Residual Nitrite, LSMean Conc × Temp: 232.01^a ppm
[1]; [34]
  Residual Nitrite, LSMean Conc × Temp: 215.08^ab ppm
[1]; [35]
  Residual Nitrite, LSMean main effect of Temperature: 192.61 ppm
[1]; [36]
  Residual Nitrite, LSMean main effect of Temperature: 186.00 ppm
[1]; [37]
  Residual Nitrite, LSMean main effect of Temperature: 185.85 ppm
NOS system [2]
  NO-Heme: 17.88^b ppm
  Nitrosylation: 94.93^b %
  Total Heme: 79.11^a ppm
NOS system [2]; listed as sodium nitrite
  Nitrosylation: 94.93%
[3]; [8]
  Residual Nitrite, LSMean main effect of Concentration: 75.33 ppm
[3]; [9]
  Residual Nitrite, LSMean Conc × Temp: 119.32^a ppm
[3]; [10]
  Residual Nitrite, LSMean Conc × Temp: 60.08^bc ppm
[3]; [11]
  Residual Nitrite, LSMean Conc × Temp: 46.59^c ppm
[3]; [12]
  Residual Nitrite, LSMean main effect of Concentration: 81.08 ppm
[3]; [13]
  Residual Nitrite, LSMean Conc × Temp: 107.54^ab ppm
[3]; [14]
  Residual Nitrite, LSMean Conc × Temp: 77.51^abc ppm
[3]; [15]
  Residual Nitrite, LSMean Conc × Temp: 58.18^bc ppm
[3]; [16]
  Residual Nitrite, LSMean main effect of Concentration: 72.05 ppm
[3]; [17]
  Residual Nitrite, LSMean Conc × Temp: 86.41^abc ppm
[3]; [18]
  Residual Nitrite, LSMean Conc × Temp: 47.02^c ppm
[3]; [19]
  Residual Nitrite, LSMean Conc × Temp: 82.73^ab ppm
[3]; [20]
  Residual Nitrite, LSMean main effect of Temperature: 104.42^a ppm and 104.42 ppm
[3]; [21]
  Residual Nitrite, LSMean main effect of Temperature: 61.54^b ppm and 61.54 ppm
[3]; [22]
  Residual Nitrite, LSMean main effect of Temperature: 62.50^b ppm and 62.50 ppm
[3]; [23]
  Residual Nitrite, LSMean main effect of Concentration: 182.18 ppm
[3]; [24]
  Residual Nitrite, LSMean Conc × Temp: 187.92 ppm
[3]; [25]
  Residual Nitrite, LSMean Conc × Temp: 204.95 ppm
[3]; [26]
  Residual Nitrite, LSMean Conc × Temp: 153.68 ppm
[3]; [27]
  Residual Nitrite, LSMean main effect of Concentration: 202.15 ppm
[3]; [28]
  Residual Nitrite, LSMean Conc × Temp: 199.54 ppm
[3]; [29]
  Residual Nitrite, LSMean Conc × Temp: 214.72 ppm
[3]; [30]
  Residual Nitrite, LSMean Conc × Temp: 192.19 ppm
[3]; [31]
  Residual Nitrite, LSMean main effect of Concentration: 196.51 ppm
[3]; [32]
  Residual Nitrite, LSMean Conc × Temp: 184.28 ppm
[3]; [33]
  Residual Nitrite, LSMean Conc × Temp: 202.30 ppm
[3]; [34]
  Residual Nitrite, LSMean Conc × Temp: 202.96 ppm
[3]; [35]
  Residual Nitrite, LSMean main effect of Temperature: 190.58 ppm
[3]; [36]
  Residual Nitrite, LSMean main effect of Temperature: 207.32 ppm
[3]; [37]
  Residual Nitrite, LSMean main effect of Temperature: 182.94 ppm
[4]; [8]
  Residual Nitrite, LSMean main effect of Concentration: 64.56^b ppm and 64.56 ppm
[4]; [9]
  Residual Nitrite, LSMean Conc × Temp: 66.48 ppm
[4]; [10]
  Residual Nitrite, LSMean Conc × Temp: 68.47 ppm
[4]; [11]
  Residual Nitrite, LSMean Conc × Temp: 58.74 ppm
[4]; [12]
  Residual Nitrite, LSMean main effect of Concentration: 78.51^ab ppm and 78.51 ppm
[4]; [13]
  Residual Nitrite, LSMean Conc × Temp: 80.52 ppm
[4]; [14]
  Residual Nitrite, LSMean Conc × Temp: 85.36 ppm
[4]; [15]
  Residual Nitrite, LSMean Conc × Temp: 69.65 ppm
[4]; [16]
  Residual Nitrite, LSMean main effect of Concentration: 90.59^a ppm and 90.59 ppm
[4]; [17]
  Residual Nitrite, LSMean Conc × Temp: 107.26 ppm
[4]; [18]
  Residual Nitrite, LSMean Conc × Temp: 86.10 ppm
[4]; [19]
  Residual Nitrite, LSMean Conc × Temp: 78.41 ppm
[4]; [20]
  Residual Nitrite, LSMean main effect of Temperature: 84.75^a ppm and 84.75 ppm
[4]; [21]
  Residual Nitrite, LSMean main effect of Temperature: 79.98^ab ppm and 79.98 ppm
[4]; [22]
  Residual Nitrite, LSMean main effect of Temperature: 68.93^b ppm and 68.93 ppm
[4]; [24]
  Residual Nitrite, LSMean Conc × Temp: 171.64^cde ppm
[4]; [25]
  Residual Nitrite, LSMean Conc × Temp: 148.63^e ppm
[4]; [26]
  Residual Nitrite, LSMean Conc × Temp: 162.23^de ppm
[4]; [28]
  Residual Nitrite, LSMean Conc × Temp: 202.54^bc ppm
[4]; [29]
  Residual Nitrite, LSMean Conc × Temp: 177.54^cde ppm
[4]; [30]
  Residual Nitrite, LSMean Conc × Temp: 165.70^cde ppm
[4]; [32]
  Residual Nitrite, LSMean Conc × Temp: 249.27^a ppm
[4]; [33]
  Residual Nitrite, LSMean Conc × Temp: 223.86^ab ppm
[4]; [34]
  Residual Nitrite, LSMean Conc × Temp: 189.46^cd ppm
[4]; [35]
  Residual Nitrite, LSMean main effect of Temperature: 207.82^a ppm and 207.82 ppm
[4]; [36]
  Residual Nitrite, LSMean main effect of Temperature: 183.34^b ppm and 183.34 ppm
[4]; [37]
  Residual Nitrite, LSMean main effect of Temperature: 172.46^b ppm and 172.46 ppm
[5]; Day 1
  residual sodium nitrite: 85.05
[5]; Day 7
  residual sodium nitrite: 74.53
[5]; Day 14
  residual sodium nitrite: 121.03
[5]; Day 28
  residual sodium nitrite: 73.73
NOS system [6]
  Nitrite: 21.27^a ppm
NOS system [6]; listed as sodium nitrite
  Nitrite: 21.27 ppm and ~18 ppm
[7]; Day 1
  water activity (Aw): 0.979
[7]; Day 7
  water activity (Aw): 0.979
[7]; Day 14
  water activity (Aw): 0.972
[7]; Day 28
  water activity (Aw): 0.978
